{"source": "PubChem BioAssay AID330", "about": "(DTP/NCI, 2004)", "tested_on": "P388 leukemia ip, CD2F1 mice, survival T/C", "experiment": "NCI In Vivo Anticancer Drug Screen. Data for tumor model P388 Leukemia (intraperitoneal) in CD2F1 (CDF1) mice", "conditions": "endpoint: median survival time, higher = longer survival", "summary_of_the_method": "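Mice carrying the transplanted tumor received test compound or vehicle. Survival was recorded in each group, and the value is the treated-group measurement divided by that of the vehicle-treated control group.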", "key": {"[1]": {"conditions": "dose: 50.0 mg/kg/injection, schedule: Q01DX005 (ip), vehicle: Klucel (hydroxypropylcellulose) (HPC)"}, "[2]": {"conditions": "dose: 100.0 mg/kg/injection, schedule: Q01DX005 (ip), vehicle: Klucel (hydroxypropylcellulose) (HPC)"}, "[3]": {"conditions": "dose: 200.0 mg/kg/injection, schedule: Q01DX005 (ip), vehicle: Klucel (hydroxypropylcellulose) (HPC)"}, "[4]": {"conditions": "dose: 50.0 mg/kg/injection, schedule: Q01DX009 (ip), vehicle: saline with Tween-80"}, "[5]": {"conditions": "dose: 100.0 mg/kg/injection, schedule: Q01DX009 (ip), vehicle: saline with Tween-80"}, "[6]": {"conditions": "dose: 200.0 mg/kg/injection, schedule: Q01DX009 (ip), vehicle: saline with Tween-80"}, "[7]": {"conditions": "dose: 50.0 mg/kg/injection, schedule: Q01DX009 (ip), vehicle: saline"}, "[8]": {"conditions": "dose: 100.0 mg/kg/injection, schedule: Q01DX009 (ip), vehicle: saline"}, "[9]": {"conditions": "dose: 200.0 mg/kg/injection, schedule: Q01DX009 (ip), vehicle: saline"}}, "note": "“And” between values parts separate entries of the source, which are not always exact repeats. Equal entries are not always repeated. Toxic doses and inconclusive results are not listed."}
{"smiles": "N=C(N)c1ccc(-c2[nH]c3cc(C(=N)N)ccc3c2N)cc1", "values": [{"measurement": "T/C", "setting": "dose: 6.25 mg/kg/injection, schedule: Q04DX003 (ip), vehicle: saline", "value": "86 % of control"}, {"measurement": "T/C", "setting": "dose: 12.5 mg/kg/injection, schedule: Q04DX003 (ip), vehicle: saline", "value": "88 % of control"}, {"measurement": "T/C", "setting": "dose: 25.0 mg/kg/injection, schedule: Q04DX003 (ip), vehicle: saline", "value": "92 % of control"}]}
{"smiles": "C/C=c1/[nH]c(=O)/c(=C\\C=C\\c2ccccc2)[nH]c1=O", "values": [{"measurement": "T/C", "setting": "dose: 25.0 mg/kg/injection, schedule: Q01DX009 (ip), vehicle: Klucel (hydroxypropylcellulose) (HPC)", "value": "106 % of control and 91 % of control"}, {"measurement": "T/C", "setting": "dose: 50.0 mg/kg/injection, schedule: Q01DX009 (ip), vehicle: Klucel (hydroxypropylcellulose) (HPC)", "value": "104 % of control and 91 % of control"}, {"measurement": "T/C", "setting": "dose: 100.0 mg/kg/injection, schedule: Q01DX009 (ip), vehicle: Klucel (hydroxypropylcellulose) (HPC)", "value": "88 % of control and 91 % of control and 95 % of control"}, {"measurement": "T/C", "setting": "dose: 200.0 mg/kg/injection, schedule: Q01DX009 (ip), vehicle: Klucel (hydroxypropylcellulose) (HPC)", "value": "97 % of control"}]}
{"smiles": "O=C1C(=Cc2ccccc2O)C(=O)N(c2ccccc2)C(=S)N1c1ccccc1", "values": [{"measurement": "T/C", "setting": "[1]", "value": "100 % of control"}, {"measurement": "T/C", "setting": "[2]", "value": "100 % of control"}, {"measurement": "T/C", "setting": "[3]", "value": "100 % of control"}]}
{"smiles": "CC(C)(CO)COC1OCN(C(C)(C)C)CC1(C)C", "note": "(centres undefined)", "values": [{"measurement": "T/C", "setting": "[4]", "value": "100 % of control"}, {"measurement": "T/C", "setting": "[5]", "value": "110 % of control"}, {"measurement": "T/C", "setting": "[6]", "value": "112 % of control"}]}
{"smiles": "CCCCNC(=O)SCCC(=O)OC", "values": [{"measurement": "T/C", "setting": "[1]", "value": "100 % of control"}, {"measurement": "T/C", "setting": "[2]", "value": "99 % of control"}, {"measurement": "T/C", "setting": "[3]", "value": "105 % of control"}]}
{"smiles": "O=C1C(C(=NCCCN2CCOCC2)c2ccccc2)=C(O)c2ccccc21", "values": [{"measurement": "T/C", "setting": "dose: 25.0 mg/kg/injection, schedule: Q04DX002 (ip), vehicle: saline with Tween-80", "value": "102 % of control"}, {"measurement": "T/C", "setting": "dose: 50.0 mg/kg/injection, schedule: Q04DX002 (ip), vehicle: saline with Tween-80", "value": "101 % of control"}, {"measurement": "T/C", "setting": "dose: 100.0 mg/kg/injection, schedule: Q04DX002 (ip), vehicle: saline with Tween-80", "value": "109 % of control"}]}
{"smiles": "CC(=O)CCN1C(C#N)CCCC1C#N", "note": "(centres undefined)", "values": [{"measurement": "T/C", "setting": "dose: 6.25 mg/kg/injection, schedule: Q01DX005 (ip), vehicle: saline with Tween-80", "value": "102 % of control"}, {"measurement": "T/C", "setting": "dose: 12.5 mg/kg/injection, schedule: Q01DX005 (ip), vehicle: saline with Tween-80", "value": "91 % of control"}, {"measurement": "T/C", "setting": "dose: 25.0 mg/kg/injection, schedule: Q01DX005 (ip), vehicle: saline with Tween-80", "value": "100 % of control"}]}
{"smiles": "CC1(C)C2C=CC(OC2=O)C1(C)NC(=O)OCc1ccccc1", "note": "(centres undefined)", "values": [{"measurement": "T/C", "setting": "[7]", "value": "96 % of control"}, {"measurement": "T/C", "setting": "[8]", "value": "98 % of control"}, {"measurement": "T/C", "setting": "[9]", "value": "99 % of control"}]}
{"smiles": "CCN(CC)C(=S)N/N=C(\\C)c1ccccn1", "values": [{"measurement": "T/C", "setting": "dose: 6.25 mg/kg/injection, schedule: Q01DX009 (ip), vehicle: saline with Tween-80", "value": "106 % of control"}, {"measurement": "T/C", "setting": "dose: 12.5 mg/kg/injection, schedule: Q01DX009 (ip), vehicle: saline with Tween-80", "value": "89 % of control"}]}
{"smiles": "Cc1cc(C2(c3cc(C)c(O)c(CN(CC(=O)O)CC(=O)O)c3)OS(=O)(=O)c3ccccc32)cc(CN(CC(=O)O)CC(=O)O)c1O", "values": [{"measurement": "T/C", "setting": "[7]", "value": "105 % of control"}, {"measurement": "T/C", "setting": "[8]", "value": "96 % of control"}, {"measurement": "T/C", "setting": "[9]", "value": "104 % of control"}]}
{"smiles": "COc1ccc(-n2c(N)c(C#N)c3c(c2=S)CCCC3)cc1", "values": [{"measurement": "T/C", "setting": "dose: 50.0 mg/kg/injection, schedule: Q01DX005 (ip), vehicle: Klucel + Tween-80", "value": "100 % of control"}, {"measurement": "T/C", "setting": "dose: 100.0 mg/kg/injection, schedule: Q01DX005 (ip), vehicle: Klucel + Tween-80", "value": "104 % of control"}, {"measurement": "T/C", "setting": "dose: 200.0 mg/kg/injection, schedule: Q01DX005 (ip), vehicle: Klucel + Tween-80", "value": "95 % of control"}]}
{"smiles": "C=C1CC[C@@H]2C(C)(C)CCC[C@@]2(C)[C@@H]1Cc1cc(O)ccc1O", "values": [{"measurement": "T/C", "setting": "dose: 10.0 mg/kg/injection, schedule: Q01DX009 (ip), vehicle: Klucel (hydroxypropylcellulose) (HPC)", "value": "104 % of control"}, {"measurement": "T/C", "setting": "dose: 20.0 mg/kg/injection, schedule: Q01DX009 (ip), vehicle: Klucel (hydroxypropylcellulose) (HPC)", "value": "110 % of control"}, {"measurement": "T/C", "setting": "dose: 40.0 mg/kg/injection, schedule: Q01DX009 (ip), vehicle: Klucel (hydroxypropylcellulose) (HPC)", "value": "116 % of control"}]}
{"smiles": "Cc1cccc(Nc2cc(=O)[nH]c(=O)[nH]2)c1", "values": [{"measurement": "T/C", "setting": "dose: 100.0 mg/kg/injection, schedule: Q04DX003 (ip), vehicle: Klucel (hydroxypropylcellulose) (HPC)", "value": "110 % of control"}, {"measurement": "T/C", "setting": "dose: 200.0 mg/kg/injection, schedule: Q04DX003 (ip), vehicle: Klucel (hydroxypropylcellulose) (HPC)", "value": "98 % of control"}]}
{"smiles": "Fc1ccc(CSC(=S)Nc2cccc(F)c2)cc1", "values": [{"measurement": "T/C", "setting": "dose: 50.0 mg/kg/injection, schedule: Q01DX009 (ip), vehicle: suspension in saline", "value": "90 % of control"}, {"measurement": "T/C", "setting": "dose: 100.0 mg/kg/injection, schedule: Q01DX009 (ip), vehicle: suspension in saline", "value": "103 % of control"}, {"measurement": "T/C", "setting": "dose: 200.0 mg/kg/injection, schedule: Q01DX009 (ip), vehicle: suspension in saline", "value": "107 % of control"}]}
{"smiles": "O=C(/C=C/c1ccc(OCc2ccccc2)cc1)c1c(F)cccc1F", "values": [{"measurement": "T/C", "setting": "[4]", "value": "99 % of control"}, {"measurement": "T/C", "setting": "[5]", "value": "98 % of control"}, {"measurement": "T/C", "setting": "[6]", "value": "100 % of control"}]}
